Results reported in ChEMBL document CHEMBL1131247, “Substituted naphthofurans as hallucinogenic phenethylamine-ergoline hybrid molecules with unexpected muscarinic antagonist activity” (J Med Chem, 1998).
Where “and” joins values, the source holds several entries; their conditions need not be identical. Equal values may be shown once. Calls of active or inactive are those of the source. No cut-off for these calls is given here.

Columns and labels:
[1] = target: T1, 5-hydroxytryptamine receptor 2B (Homo sapiens, UniProt P41595); experiment: Binding ability of compound at cloned human 5-hydroxytryptamine 2B receptor using [3H]rauwolscine as radioligand
T1 sequence (P41595 whole entry): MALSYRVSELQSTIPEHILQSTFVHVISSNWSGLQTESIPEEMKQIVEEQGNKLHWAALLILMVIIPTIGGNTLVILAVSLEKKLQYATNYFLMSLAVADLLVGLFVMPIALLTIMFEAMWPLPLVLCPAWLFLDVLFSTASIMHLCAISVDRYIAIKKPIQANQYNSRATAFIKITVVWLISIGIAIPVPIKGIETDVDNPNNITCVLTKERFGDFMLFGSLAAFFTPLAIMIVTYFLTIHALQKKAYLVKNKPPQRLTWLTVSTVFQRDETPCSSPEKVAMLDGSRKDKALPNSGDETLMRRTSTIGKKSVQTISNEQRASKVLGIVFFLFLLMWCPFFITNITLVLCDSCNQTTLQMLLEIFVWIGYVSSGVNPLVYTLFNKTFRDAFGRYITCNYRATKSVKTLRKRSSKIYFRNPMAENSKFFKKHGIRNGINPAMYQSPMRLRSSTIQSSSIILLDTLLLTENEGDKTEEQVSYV

[2] = target: T2, 5-hydroxytryptamine receptor 1A (Rattus norvegicus, UniProt P19327); experiment: Affinity at [3H]8-OH-DPAT-labeled 5-hydroxytryptamine 1A receptor in rat brain homogenate was determined; format: tissue-based
T2 sequence (P19327 whole entry): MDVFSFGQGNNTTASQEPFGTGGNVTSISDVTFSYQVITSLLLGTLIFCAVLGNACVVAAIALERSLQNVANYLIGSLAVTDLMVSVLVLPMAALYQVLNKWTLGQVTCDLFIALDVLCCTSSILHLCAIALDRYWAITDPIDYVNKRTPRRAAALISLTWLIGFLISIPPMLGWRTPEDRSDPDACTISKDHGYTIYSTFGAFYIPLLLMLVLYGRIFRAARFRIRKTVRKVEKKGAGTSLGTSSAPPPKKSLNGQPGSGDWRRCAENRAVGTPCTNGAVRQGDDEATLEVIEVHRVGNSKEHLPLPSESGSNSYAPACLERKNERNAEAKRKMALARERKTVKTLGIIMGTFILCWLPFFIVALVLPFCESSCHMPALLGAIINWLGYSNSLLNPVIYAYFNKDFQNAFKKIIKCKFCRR

[3] = target: T3, 5-hydroxytryptamine receptor 2A (Homo sapiens, UniProt P28223); experiment: Binding ability of compound at cloned human 5-hydroxytryptamine 2A receptor using [125 I]DOI as radioligand
T3 sequence (P28223 whole entry): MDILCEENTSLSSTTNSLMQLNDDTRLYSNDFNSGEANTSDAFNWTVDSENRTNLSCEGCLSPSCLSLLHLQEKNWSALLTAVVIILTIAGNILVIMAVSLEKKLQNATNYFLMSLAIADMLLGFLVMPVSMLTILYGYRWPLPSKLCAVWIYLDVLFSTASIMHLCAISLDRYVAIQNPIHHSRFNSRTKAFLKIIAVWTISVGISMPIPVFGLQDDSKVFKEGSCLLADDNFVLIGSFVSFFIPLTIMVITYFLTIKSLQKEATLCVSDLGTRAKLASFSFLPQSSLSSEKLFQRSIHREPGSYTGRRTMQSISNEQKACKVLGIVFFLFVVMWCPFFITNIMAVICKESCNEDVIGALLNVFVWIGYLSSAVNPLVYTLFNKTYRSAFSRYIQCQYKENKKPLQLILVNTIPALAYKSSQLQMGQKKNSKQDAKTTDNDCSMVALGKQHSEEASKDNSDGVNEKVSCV

[4] = target: T3, 5-hydroxytryptamine receptor 2A; experiment: Binding ability of compound at cloned human 5-hydroxytryptamine 2A receptor using [3H]ketanserin as radioligand
[5] = target: T1, 5-hydroxytryptamine receptor 2B; experiment: Binding ability of compound at cloned human 5-hydroxytryptamine 2B receptor using [3H]5-HT 2B as radioligand
[6] = target: T4, 5-hydroxytryptamine receptor 2C (Homo sapiens, UniProt P28335); experiment: Binding ability of compound at cloned human 5-hydroxytryptamine 2C receptor using [3H]- mesulergine as radioligand
T4 sequence (P28335 whole entry): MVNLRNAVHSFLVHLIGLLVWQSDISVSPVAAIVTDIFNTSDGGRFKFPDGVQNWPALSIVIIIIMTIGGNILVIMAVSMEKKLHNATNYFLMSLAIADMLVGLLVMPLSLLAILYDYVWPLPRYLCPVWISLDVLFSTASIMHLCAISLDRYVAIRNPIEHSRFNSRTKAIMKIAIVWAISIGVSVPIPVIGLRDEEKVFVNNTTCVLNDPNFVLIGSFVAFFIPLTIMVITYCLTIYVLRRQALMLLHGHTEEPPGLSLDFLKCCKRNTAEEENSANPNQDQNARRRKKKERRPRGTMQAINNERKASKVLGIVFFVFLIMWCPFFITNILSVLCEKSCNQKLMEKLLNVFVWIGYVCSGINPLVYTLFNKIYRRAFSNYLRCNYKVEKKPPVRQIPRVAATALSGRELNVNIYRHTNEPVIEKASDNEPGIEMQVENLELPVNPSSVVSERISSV

[7] = target: T4, 5-hydroxytryptamine receptor 2C; experiment: Binding ability of compound at cloned human 5-hydroxytryptamine 2C receptor using [125 I]DOI as radioligand
[8] = target: 5-hydroxytryptamine receptor 2A (Rattus norvegicus, UniProt P14842); experiment: Affinity at [3H]ketanserin-labeled 5-hydroxytryptamine 2A receptor in rat brain homogenate was determined; format: tissue-based
Sequence of 5-hydroxytryptamine receptor 2A (Rattus norvegicus, UniProt P14842) (P14842 whole entry): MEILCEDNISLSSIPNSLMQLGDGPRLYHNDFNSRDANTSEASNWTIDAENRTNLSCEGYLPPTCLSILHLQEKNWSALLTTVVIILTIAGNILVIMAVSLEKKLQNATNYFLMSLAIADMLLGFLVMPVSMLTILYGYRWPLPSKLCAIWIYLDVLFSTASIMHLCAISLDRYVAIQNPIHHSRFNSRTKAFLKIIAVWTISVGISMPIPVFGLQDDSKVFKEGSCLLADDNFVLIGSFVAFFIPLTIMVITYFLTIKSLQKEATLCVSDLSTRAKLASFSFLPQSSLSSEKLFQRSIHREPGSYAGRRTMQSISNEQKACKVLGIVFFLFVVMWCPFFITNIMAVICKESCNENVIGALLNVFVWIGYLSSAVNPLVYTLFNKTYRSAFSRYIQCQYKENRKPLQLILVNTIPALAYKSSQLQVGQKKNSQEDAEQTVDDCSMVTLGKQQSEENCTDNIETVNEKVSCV

Rattus norvegicus [9] = organism: Rattus norvegicus; experiment: Effective dose for LSD-like behavioral effect in rats; format: functional
Rattus norvegicus [10] = experiment: Percentage of animals emitting 50 presses on the LSD appropriate lever during the test period in rat at 0.01 mg/kg (0.023 uM/kg); format: functional
Rattus norvegicus [11] = experiment: Percentage of animals failing to emit 50 presses on either lever within the 15-min test period in rat at 0.08 mg/kg (0.186 uM/kg); format: functional
Rattus norvegicus [12] = experiment: Percentage of animals failing to emit 50 presses on either lever within the 15-min test period in rat at 0.04 mg/kg (0.093 uM/kg); format: functional
Rattus norvegicus [13] = experiment: Percentage of animals failing to emit 50 presses on either lever within the 15-min test period in rat at 0.02 mg/kg(0.046 uM/kg); format: functional
Rattus norvegicus [14] = experiment: Percentage of animals emitting 50 presses on the LSD appropriate lever during the test period i8n at 0.04 mg/kg (0.093 uM/kg); format: functional
Rattus norvegicus [15] = experiment: Percentage of animals emitting 50 presses on the LSD appropriate lever during the test period in rat at 0.02 mg/kg(0.046 uM/kg); format: functional
Rattus norvegicus [16] = experiment: Percentage of animals emitting 50 presses on the LSD appropriate lever during the test period in at 0.08 mg/kg (0.186 uM/kg); format: functional
Rattus norvegicus [17] = experiment: Percentage of animals failing to emit 50 presses on either lever within the 15-min test period in rat at 0.01 mg/kg (0.023 uM/kg); format: functional
[18] = target: T5, Muscarinic acetylcholine receptor M1 (Mus musculus) (UniProt P12657)
T5 sequence (whole entry): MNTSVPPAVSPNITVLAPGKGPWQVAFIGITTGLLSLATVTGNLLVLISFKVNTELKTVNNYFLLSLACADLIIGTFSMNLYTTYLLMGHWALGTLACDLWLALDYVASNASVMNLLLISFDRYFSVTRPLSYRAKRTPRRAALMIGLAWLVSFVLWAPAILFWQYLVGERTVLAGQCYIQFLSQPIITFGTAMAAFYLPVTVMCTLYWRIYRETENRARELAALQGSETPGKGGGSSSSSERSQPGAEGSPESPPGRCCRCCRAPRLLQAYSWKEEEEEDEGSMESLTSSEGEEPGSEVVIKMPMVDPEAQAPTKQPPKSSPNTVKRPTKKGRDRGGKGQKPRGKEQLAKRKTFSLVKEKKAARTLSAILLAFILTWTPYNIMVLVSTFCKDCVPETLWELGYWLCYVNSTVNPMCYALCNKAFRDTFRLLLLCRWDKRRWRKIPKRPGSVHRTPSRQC
Description: Compound was evaluated for the affinity at the cloned radio labelled Muscarinic acetylcholine receptor M1

Rattus norvegicus [19] = experiment: Percentage of animals emitting 50 presses on the LSD appropriate lever during the test period in rat at 0.78 mg/kg(2 uM/kg); format: functional
[20] = target: Muscarinic acetylcholine receptor M3 (Rattus norvegicus) (UniProt P08483)
Sequence of Muscarinic acetylcholine receptor M3 (Rattus norvegicus) (P08483 whole entry, looked up): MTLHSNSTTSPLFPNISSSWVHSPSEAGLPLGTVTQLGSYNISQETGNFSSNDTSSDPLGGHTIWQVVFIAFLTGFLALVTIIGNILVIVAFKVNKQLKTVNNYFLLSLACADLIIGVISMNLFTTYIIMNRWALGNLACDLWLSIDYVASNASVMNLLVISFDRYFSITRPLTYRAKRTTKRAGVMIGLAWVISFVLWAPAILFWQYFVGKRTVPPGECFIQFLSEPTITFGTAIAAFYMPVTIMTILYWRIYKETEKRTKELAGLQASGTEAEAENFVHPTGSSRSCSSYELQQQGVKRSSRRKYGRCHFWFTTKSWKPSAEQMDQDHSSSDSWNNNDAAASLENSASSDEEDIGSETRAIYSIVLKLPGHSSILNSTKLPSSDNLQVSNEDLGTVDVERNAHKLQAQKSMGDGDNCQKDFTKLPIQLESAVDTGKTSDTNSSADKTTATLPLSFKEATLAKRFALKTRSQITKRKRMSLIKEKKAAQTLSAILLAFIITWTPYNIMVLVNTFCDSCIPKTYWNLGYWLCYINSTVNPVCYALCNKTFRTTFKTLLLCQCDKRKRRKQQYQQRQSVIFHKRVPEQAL
Description: Compound was evaluated for the affinity at the cloned radio labelled Muscarinic acetylcholine receptor M3

[21] = target: T6, Muscarinic acetylcholine receptor M4 (Rattus norvegicus) (UniProt P08485)
T6 sequence (whole entry): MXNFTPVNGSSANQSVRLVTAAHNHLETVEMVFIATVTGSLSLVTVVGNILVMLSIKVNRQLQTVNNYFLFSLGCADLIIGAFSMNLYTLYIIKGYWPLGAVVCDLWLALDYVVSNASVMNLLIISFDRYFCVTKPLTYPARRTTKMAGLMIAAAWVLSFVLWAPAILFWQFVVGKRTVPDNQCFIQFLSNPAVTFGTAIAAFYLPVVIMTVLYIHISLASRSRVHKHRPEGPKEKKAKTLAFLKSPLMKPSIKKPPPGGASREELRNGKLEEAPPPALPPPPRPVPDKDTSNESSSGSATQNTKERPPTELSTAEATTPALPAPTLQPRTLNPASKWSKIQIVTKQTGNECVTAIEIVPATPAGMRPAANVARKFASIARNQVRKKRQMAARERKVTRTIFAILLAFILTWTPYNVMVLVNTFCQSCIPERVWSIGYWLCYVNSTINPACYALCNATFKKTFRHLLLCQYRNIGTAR
Description: Compound was evaluated for the affinity at the cloned radio labelled Muscarinic acetylcholine receptor M4

Rattus norvegicus [22] = experiment: Percentage of animals failing to emit 50 presses on either lever within the 15-min test period in rat at 5.84 mg/kg (16 umol/kg); format: functional
Rattus norvegicus [23] = experiment: Percentage of animals failing to emit 50 presses on either lever within the 15-min test period in rat at 1.46 mg/kg (4 umol/kg); format: functional
Rattus norvegicus [24] = experiment: Percentage of animal emitting 50 presses on the LSD appropriate lever during the test period in rat at 0.365 mg/kg (1 uM/kg); format: functional
Rattus norvegicus [25] = experiment: Percentage of animals failing to emit 50 presses on either lever within the 15-min test period in rat at 0.78 mg/kg(2 uM/kg); format: functional
[26] = target: T7, Muscarinic acetylcholine receptor M5 (Rattus norvegicus) (UniProt P08911)
T7 sequence (whole entry): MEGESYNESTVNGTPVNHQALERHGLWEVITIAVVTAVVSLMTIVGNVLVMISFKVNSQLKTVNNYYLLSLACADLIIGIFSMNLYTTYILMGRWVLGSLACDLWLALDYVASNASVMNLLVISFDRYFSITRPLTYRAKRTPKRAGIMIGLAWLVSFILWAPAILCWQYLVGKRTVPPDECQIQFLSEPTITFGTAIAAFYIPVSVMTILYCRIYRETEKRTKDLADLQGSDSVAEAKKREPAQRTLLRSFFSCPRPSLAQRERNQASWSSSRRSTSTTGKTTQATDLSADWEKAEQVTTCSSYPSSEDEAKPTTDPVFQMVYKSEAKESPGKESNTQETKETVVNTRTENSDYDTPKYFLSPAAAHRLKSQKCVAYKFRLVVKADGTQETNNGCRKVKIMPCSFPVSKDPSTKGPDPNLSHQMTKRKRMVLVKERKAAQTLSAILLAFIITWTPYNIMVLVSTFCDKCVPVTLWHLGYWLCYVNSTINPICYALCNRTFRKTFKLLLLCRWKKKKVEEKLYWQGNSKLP
Description: Compound was evaluated for the affinity at the cloned radio labelled Muscarinic acetylcholine receptor M5

[27] = target: T1, 5-hydroxytryptamine receptor 2B; experiment: Binding ability of compound at cloned human 5-hydroxytryptamine 2B receptor using [3H]- rauwolscine as radioligand
Rattus norvegicus [28] = experiment: Percentage of animals emitting 50 presses on the LSD appropriate lever during the test period in rat at 5.84 mg/kg (16 umol/kg); format: functional
Rattus norvegicus [29] = organism: Rattus norvegicus; experiment: (§1) Effective dose for LSD-like behavioral effect in rats; Not significant; format: functional, organism-based
[30] = target: T8, Muscarinic acetylcholine receptor M2 (Rattus norvegicus) (UniProt P10980)
T8 sequence (whole entry): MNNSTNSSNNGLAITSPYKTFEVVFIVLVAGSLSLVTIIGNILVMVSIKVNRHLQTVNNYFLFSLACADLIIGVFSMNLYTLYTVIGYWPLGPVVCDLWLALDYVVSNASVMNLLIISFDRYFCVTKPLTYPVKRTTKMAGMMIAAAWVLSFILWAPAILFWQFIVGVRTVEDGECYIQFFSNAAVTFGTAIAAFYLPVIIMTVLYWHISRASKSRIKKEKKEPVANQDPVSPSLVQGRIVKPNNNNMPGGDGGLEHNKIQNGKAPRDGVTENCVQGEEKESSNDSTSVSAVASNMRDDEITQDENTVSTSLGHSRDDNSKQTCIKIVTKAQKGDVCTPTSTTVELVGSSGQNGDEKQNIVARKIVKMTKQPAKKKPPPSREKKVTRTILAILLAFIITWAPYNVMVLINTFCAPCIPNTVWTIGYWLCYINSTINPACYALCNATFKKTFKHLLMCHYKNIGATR
Description: Compound was evaluated for the affinity at the cloned radio labelled Muscarinic acetylcholine receptor M2

Rattus norvegicus [31] = experiment: Percentage of animals emitting 50 presses on the LSD appropriate lever during the test period in rat at 1.46 mg/kg (4 umol/kg); format: functional
Rattus norvegicus [32] = organism: Rattus norvegicus; experiment: Percentage of animals emitting 50 presses on the LSD appropriate lever during the test period; format: functional
Rattus norvegicus [33] = experiment: Percentage of animals failing to emit 50 presses on either lever within the 15-min test period in rat at 0.365 mg/kg (1 uM/kg); format: functional
Rattus norvegicus [34] = organism: Rattus norvegicus; experiment: as §1; format: functional, organism-based; remark: listed apart in the source
Rattus norvegicus [35] = experiment: Percentage of animals failing to emit 50 presses on either lever within the 15-min test period in rat at 2.92 mg/kg (8 umol/kg); format: functional

C[C@@H](N)Cc1c2c(c(Br)c3c1OCC3)OCC2
Ki [1]: 0.00115 µM
Ki [2]: 4.3 µM
Ki [3]: 0.00048 µM
Ki [4]: 0.0107 µM
Ki [5]: 0.0016 µM
Ki [6]: 0.00228 µM
Ki [7]: 0.0003 µM
Ki [8]: 0.018 µM
ED50 (Rattus norvegicus [9]): 0.061 mg/kg

CCN(CC)C(=O)[C@@H]1C=C2c3cccc4[nH]cc(c34)C[C@H]2N(C)C1 [LYSERGIDE]
SDL (Rattus norvegicus [10]): 31%
D (Rattus norvegicus [11]): 0%
D (Rattus norvegicus [12]): 0%
D (Rattus norvegicus [13]): 7%
SDL (Rattus norvegicus [14]): 81%
SDL (Rattus norvegicus [15]): 62%
SDL (Rattus norvegicus [16]): 100%
ED50 (Rattus norvegicus [9]): 0.037 µmol/kg and 0.016 mg/kg
D (Rattus norvegicus [17]): 0%

COc1cc(Br)c2c3c1C[C@H](N)C[C@@H]3CO2
K 0.5 [18]: 20 nM
SDL (Rattus norvegicus [19]): 0%
K 0.5 [20]: 12 nM
K 0.5 [21]: 30 nM
Ki [3]: 0.013 µM
D (Rattus norvegicus [22]): 15%
D (Rattus norvegicus [23]): 0%
SDL (Rattus norvegicus [24]): 0%
D (Rattus norvegicus [25]): 0%
K 0.5 [26]: 33 nM
Ki [4]: 0.24 µM
Ki [27]: 0.255 µM
SDL (Rattus norvegicus [28]): 44%
Ki [5]: 0.263 µM
ED50 (Rattus norvegicus [29]): inactive
Ki [6]: 0.0896 µM
K 0.5 [30]: 41 nM
Ki [7]: 0.00596 µM
SDL (Rattus norvegicus [31]): 10%
Ki [8]: 1.05 µM
SDL (Rattus norvegicus [32]): 33%
D (Rattus norvegicus [33]): 0%
ED50 (Rattus norvegicus [34]): inactive
D (Rattus norvegicus [35]): 0%
